From patent publication US9910031B2, “Compositions and methods for modulating c-Rel-dependent cytokine production” (Synta Pharmaceuticals Corporation, priority 2003, dated 2018)

Columns and labels:
human IL-12 p35 promoter = assay: IL-12 p35 promoter/luciferase reporter in transiently transfected RAW264.7 cells; type: cell-based, murine; settings: for p35 promoter-driven luciferase expression: RAW264.7, IFN-γ/LPS or IFN-γ/SAC
Method: As a result of the Northern blot findings, we undertook a study of the p35 and p40 promoter activities. We transiently transfected the murine macrophage cell line RAW264.7 with DNA constructs in which the p35 and p40 promoters directed expression of the luciferase reporter gene. The RAW264.7 cell line was obtained from American Type Culture Collection (Manassas, Va.) and was cultured in DMEM (ATCC, Manassas, Va.) supplemented with 10% FCS (ATCC, Manassas, Va.), and 1% penicillin/Streptomycin (Gibco-BRL, New York, N.Y.).
Both p35 and p40 promoter-driven luciferase production in response to stimulation were determined in the presence or absence of Compound 1 and Compound 2. To construct the human IL-12 p35 and p40 promoter/luciferase reporter constructs, we generated p35 (−1.5 kb to +3 bp) and p40 (−1.3 kb to +56 bp) promoter fragments, which contained several sequence motifs of the human IL-12 p35 and p40 genes. The fragments were generated by PCR from genomic DNA obtained from human PBMC using primers as follows: IL-12 p35 1.5 kb-F: 5′-[…]-3′(SEQ ID NO:3) and IL-12 p35 1.5 kb-R: 5′-[…]-3′ (SEQ ID NO:4); IL-12 p40 −1.3 kb-F: 5′-[…]-3′ (SEQ ID NO:5) and IL-12 p40 1.3 kb-R: 5′-[…]-3′ (SEQ ID NO:6). The deletion in the p40 promoter reporter constructs were generated by PCR with primers as follows: IL-12 p40 −250 bp to +56 bp (p40/−250 bp) F: 5′-[…]-3′(SEQ ID NO:7) and IL-12 p40 −250 bp to +56 bp (p401/−250 bp) R: 5′-TGCTCTGGGCAGGACGGAG-3′ (SEQ ID NO:8); IL-12 p40 −150 bp to +56 bp (p40/−150 bp) F: 5′-[…]-3′ (SEQ ID NO:9) and IL-12 p40 −150 bp to +56 bp (p40/−150 bp) R: 5′-TGCTCTGGGCAGGACGGAG-3′(SEQ ID NO:10). […]
Cells were co-transfected with the vector pCMV (BD Biosciences Clontech) in which the constitutively active CMV promoter directs β-galactosidase expression for the monitoring of transfection efficiency. Luciferase and β-galactosidase activity were determined in cell extracts prepared according to the Luciferase assay system (Promega) and Luminescent n-gal Detection system (BD Biosciences Clontech). […]

[1] = system: IL-12 production in THP-1 cells; assay: Inhibition of IL-12 production in THP-1 cells (ELISA); type: cell-based; settings: Homo sapiens, read-out: IC50 against IL-12 production
Source text: The foregoing and other useful combination therapies will be understood and appreciated by those of skill in the art. Potential advantages of such combination therapies include the ability to use less of each of the individual active ingredients to minimize toxic side effects, synergistic improvements in efficacy, improved ease of administration or use and/or reduced overall expense of compound preparation or formulation. The biological activities of a compound of this invention can be evaluated by a number of cell-based assays. One of such assays can be conducted using cells from human peripheral blood mononuclear cells (PBMC) or human monocytic cell line (THP-1). The cells are stimulated with a combination of human interferon-γ (IFN-γ) and lipopolysaccharide or a combination of IFN-γ and Staphylococcus aureus Cowan I in the presence of a test compound. The level of inhibition of IL-12 production can be measured by, e.g., determining the amount of p70 by using a sandwich ELBA assay with anti-human IL-12 antibodies. IC50 of the test compound can then be determined. Specifically, PBMC or THP-1 cells are incubated with the test compound. Cell viability was assessed using the bioreduction of MTS [3-(4,5-dimethylthiazol-2-yl)-5-(3-carboxymethoxyphenyl)-2-(4-sulfophenyl)-2H-tetrazolium] (Promega, Madison, Wis.). […]

SMILES | p35 promoter-driven luciferase expression (human IL-12 p35 promoter) | IC50 [1] | p35 promoter-driven luciferase expression, comparison between compounds (human IL-12 p35 promoter; RAW264.7, stimulated by IFN-γ/LPS, Compound 2 compared with Compound 1)
C(=NNc1nc(OCCc2ccccn2)nc(N2CCOCC2)n1)c1c[nH]c2ccccc12 [Compound 1, N-(1H-indol-3-ylmethylene)-N′-[4-morpholin-4-yl-6-(2-pyridin-2-yl-ethoxy)-[1,3,5]triazin-2-yl]-hydrazine] | suppressed | 40 nM | 
Cc1cccc(C=NNc2cc(N3CCOCC3)nc(OCCc3ccccn3)n2)c1 [Compound 2, N-(3-methyl-benzylidene)-N′-[6-morpholin-4-yl-2-(2-pyridin-2-yl-ethoxy)-pyrimidin-4-yl]-hydrazine] | suppressed | 10 nM | inhibited more effectively
